Data as given in patent US20250353891A1 (MEDIMMUNE LIMITED, priority 2022, published 2025).
Starred links: 1 amine or outer side, 2 acyl side, 3 side chain; linkers in the order of their positions; H or OH if unused. Non-standard residues stand in square brackets, D forms with d. Residues, ends and D or L forms follow the SMILES beside them. Groups on a side chain read outwards from the residue. *: point of attachment. C20 diacid = O=C(O)CCCCCCCCCCCCCCCCCCC(=O)*; C18 diacid = O=C(O)CCCCCCCCCCCCCCCCC(=O)*; γGlu = O=C(O)[C@H](CCC(=O)[*:2])N[*:1]; αMeF = C[C@](N)(Cc1ccccc1)C(=O)O; AEEA = NCCOCCOCC(=O)O; Aib = CC(C)(N)C(=O)O

Legend:
[1] = target: human GLP-1 receptor (hGLP-1R) (Homo sapiens, UniProt P43220); experiment: cAMP production (HTRF) in CHO cells expressing hGLP-1R; type: cell-based; design: expressed in transfected cells; details: for EC50: Table 6, peptides modified at position 17, cAMP in CHO hGLP-1R cells, geometric mean, read-out: hGLP-1R EC50; for % Relative Potency Ratio: Table 6, % GLP-1R activity relative to GLP-1 / % GlucR activity relative to glucagon
Method in brief: (§1)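 Potency values represent EC50 from 4-parameter logistic curves of HTRF % Delta F signal. Receptor-expressing CHO cells (hGCGR 2×10^5 cells/mL, hGLP-1R 1×10^5 cells/mL) were exposed for 30 min at room temperature before two-step cAMP detection.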

[2] = target: human glucagon receptor (hGCGR) (Homo sapiens, UniProt P47871); experiment: cAMP production (HTRF) in CHO cells expressing hGCGR; type: cell-based; design: expressed in transfected cells; details: Table 6, peptides modified at position 17; cAMP in CHO hGCGR cells; geometric mean; read-out: hGluc-R EC50
Method in brief: as §1

human GLP-1 receptor (hGLP-1R), sequence (P43220 24-463): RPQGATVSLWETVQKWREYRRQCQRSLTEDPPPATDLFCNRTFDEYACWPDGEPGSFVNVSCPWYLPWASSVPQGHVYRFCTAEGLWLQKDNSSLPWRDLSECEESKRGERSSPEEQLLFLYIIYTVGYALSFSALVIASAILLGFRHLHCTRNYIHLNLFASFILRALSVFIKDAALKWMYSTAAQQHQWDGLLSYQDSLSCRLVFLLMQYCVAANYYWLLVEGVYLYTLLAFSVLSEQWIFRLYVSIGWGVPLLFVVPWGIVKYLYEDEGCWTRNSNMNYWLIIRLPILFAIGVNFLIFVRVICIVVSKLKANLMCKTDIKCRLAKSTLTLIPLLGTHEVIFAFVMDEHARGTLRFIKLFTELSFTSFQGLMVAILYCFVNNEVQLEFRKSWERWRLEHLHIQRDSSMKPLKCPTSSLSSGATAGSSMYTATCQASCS
human glucagon receptor (hGCGR), sequence (P47871 26-477): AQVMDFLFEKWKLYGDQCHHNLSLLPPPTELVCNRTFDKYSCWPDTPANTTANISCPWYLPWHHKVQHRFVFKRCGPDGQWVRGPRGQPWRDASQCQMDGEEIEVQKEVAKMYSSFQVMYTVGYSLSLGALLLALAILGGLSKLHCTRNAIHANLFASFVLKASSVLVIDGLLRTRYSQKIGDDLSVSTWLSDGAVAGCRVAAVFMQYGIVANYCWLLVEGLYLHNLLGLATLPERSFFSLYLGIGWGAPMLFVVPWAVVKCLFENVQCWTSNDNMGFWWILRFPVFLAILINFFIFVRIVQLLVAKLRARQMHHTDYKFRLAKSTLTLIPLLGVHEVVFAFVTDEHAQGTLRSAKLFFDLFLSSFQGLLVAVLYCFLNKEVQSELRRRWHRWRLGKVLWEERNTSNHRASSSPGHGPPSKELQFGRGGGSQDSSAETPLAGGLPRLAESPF

SMILES	EC50 [1]	% Relative Potency Ratio [1]	EC50 [2]
CC(C)C[C@H](NC(=O)[C@H](Cc1c[nH]c2ccccc12)NC(=O)[C@H](CCC(N)=O)NC(=O)[C@@H](NC(=O)[C@H](Cc1ccccc1)NC(=O)[C@H](CC(=O)O)NC(=O)[C@H](CCCNC(=N)N)NC(=O)[C@H](C)NC(=O)[C@H](CCCNC(=N)N)NC(=O)[C@H](CCCCNC(=O)COCCOCCNC(=O)COCCOCCNC(=O)CC[C@H](NC(=O)CCCCCCCCCCCCCCCCCCC(=O)O)C(=O)O)NC(=O)[C@H](CCCCN)NC(=O)[C@H](CC(=O)O)NC(=O)[C@H](CC(C)C)NC(=O)[C@](C)(Cc1ccccc1)NC(=O)[C@H](CCCCN)NC(=O)[C@H](CO)NC(=O)[C@@H](NC(=O)[C@H](CC(=O)O)NC(=O)[C@H](CO)NC(=O)[C@@H](NC(=O)[C@H](Cc1ccccc1)NC(=O)[C@@H](NC(=O)CNC(=O)[C@H](CCC(N)=O)NC(=O)C(C)(C)NC(=O)[C@@H](N)Cc1c[nH]cn1)[C@@H](C)O)[C@@H](C)O)C(C)C)C(C)C)C(=O)N[C@@H](CC(C)C)C(=O)NC(C)(C)C(=O)N[C@@H](CCC(=O)O)C(N)=O [Peptide 470] (H-H[Aib]QGTFTSDVSK[αMeF]LDKK([AEEA-AEEA-γGlu-C20 diacid])RARDFVQWLL[Aib]E-NH2; N-terminus assumed)	0.0559 nM	1.1	0.0303 nM
CC(C)C[C@H](NC(=O)[C@H](Cc1c[nH]c2ccccc12)NC(=O)[C@H](CCC(N)=O)NC(=O)[C@@H](NC(=O)[C@H](Cc1ccccc1)NC(=O)[C@H](CC(=O)O)NC(=O)[C@H](CCCNC(=N)N)NC(=O)[C@H](C)NC(=O)[C@H](CCCNC(=N)N)NC(=O)[C@H](CCCCNC(=O)COCCOCCNC(=O)COCCOCCNC(=O)CC[C@H](NC(=O)CCCCCCCCCCCCCCCCCCC(=O)O)C(=O)O)NC(=O)[C@H](CCCNC(=N)N)NC(=O)[C@H](CC(=O)O)NC(=O)[C@H](CC(C)C)NC(=O)[C@](C)(Cc1ccccc1)NC(=O)[C@H](CCCCN)NC(=O)[C@H](CO)NC(=O)[C@@H](NC(=O)[C@H](CC(=O)O)NC(=O)[C@H](CO)NC(=O)[C@@H](NC(=O)[C@H](Cc1ccccc1)NC(=O)[C@@H](NC(=O)CNC(=O)[C@H](CCC(N)=O)NC(=O)C(C)(C)NC(=O)[C@@H](N)Cc1c[nH]cn1)[C@@H](C)O)[C@@H](C)O)C(C)C)C(C)C)C(=O)N[C@@H](CC(C)C)C(=O)NC(C)(C)C(=O)N[C@@H](CCC(=O)O)C(N)=O [Peptide 471]	0.102 nM	1.2	0.0636 nM
CC(C)C[C@H](NC(=O)[C@H](Cc1c[nH]c2ccccc12)NC(=O)[C@H](CCC(N)=O)NC(=O)[C@@H](NC(=O)[C@H](Cc1ccccc1)NC(=O)[C@H](CC(=O)O)NC(=O)[C@H](CCCNC(=N)N)NC(=O)[C@H](C)NC(=O)[C@H](CCCNC(=N)N)NC(=O)[C@H](CCCCNC(=O)COCCOCCNC(=O)COCCOCCNC(=O)CC[C@H](NC(=O)CCCCCCCCCCCCCCCCC(=O)O)C(=O)O)NC(=O)[C@H](CCCNC(=N)N)NC(=O)[C@H](CC(=O)O)NC(=O)[C@H](CC(C)C)NC(=O)[C@](C)(Cc1ccccc1)NC(=O)[C@H](CCCCN)NC(=O)[C@H](CO)NC(=O)[C@@H](NC(=O)[C@H](CC(=O)O)NC(=O)[C@H](CO)NC(=O)[C@@H](NC(=O)[C@H](Cc1ccccc1)NC(=O)[C@@H](NC(=O)CNC(=O)[C@H](CCC(N)=O)NC(=O)C(C)(C)NC(=O)[C@@H](N)Cc1c[nH]cn1)[C@@H](C)O)[C@@H](C)O)C(C)C)C(C)C)C(=O)N[C@@H](CC(C)C)C(=O)NC(C)(C)C(=O)N[C@@H](CCC(=O)O)C(N)=O [Peptide 473] (H-H[Aib]QGTFTSDVSK[αMeF]LDRK([AEEA-AEEA-γGlu-C18 diacid])RARDFVQWLL[Aib]E-NH2; N-terminus assumed)	0.0115 nM	2.4	0.0141 nM
CC(C)C[C@H](NC(=O)[C@H](CC(C)C)NC(=O)[C@H](Cc1c[nH]c2ccccc12)NC(=O)[C@H](CCC(N)=O)NC(=O)[C@@H](NC(=O)[C@H](Cc1ccccc1)NC(=O)[C@H](CC(=O)O)NC(=O)[C@H](CCCNC(=N)N)NC(=O)[C@H](C)NC(=O)[C@H](CCCNC(=N)N)NC(=O)[C@H](CCCCNC(=O)COCCOCCNC(=O)COCCOCCNC(=O)CC[C@H](NC(=O)CCCCCCCCCCCCCCCCC(=O)O)C(=O)O)NC(=O)[C@@H](NC(=O)[C@H](CC(=O)O)NC(=O)[C@H](CC(C)C)NC(=O)[C@](C)(Cc1ccccc1)NC(=O)[C@H](CCCCN)NC(=O)[C@H](CO)NC(=O)[C@@H](NC(=O)[C@H](CC(=O)O)NC(=O)[C@H](CO)NC(=O)[C@@H](NC(=O)[C@H](Cc1ccccc1)NC(=O)[C@@H](NC(=O)CNC(=O)[C@H](CCC(N)=O)NC(=O)C(C)(C)NC(=O)[C@@H](N)Cc1c[nH]cn1)[C@@H](C)O)[C@@H](C)O)C(C)C)[C@@H](C)O)C(C)C)C(=O)N[C@@H](C)C(=O)NC(C)(C)C(=O)NCC(N)=O [Peptide 474] (H-H[Aib]QGTFTSDVSK[αMeF]LDTK([AEEA-AEEA-γGlu-C18 diacid])RARDFVQWLLA[Aib]G-NH2; N-terminus assumed)	0.00804 nM	14.0	0.0569 nM
CC(C)C[C@H](NC(=O)[C@H](CC(C)C)NC(=O)[C@H](Cc1c[nH]c2ccccc12)NC(=O)[C@H](CCC(N)=O)NC(=O)[C@@H](NC(=O)[C@H](Cc1ccccc1)NC(=O)[C@H](CC(=O)O)NC(=O)[C@H](CCCNC(=N)N)NC(=O)[C@H](C)NC(=O)[C@H](CCCNC(=N)N)NC(=O)[C@H](CCCCNC(=O)COCCOCCNC(=O)COCCOCCNC(=O)CC[C@H](NC(=O)CCCCCCCCCCCCCCCCCCC(=O)O)C(=O)O)NC(=O)[C@@H](NC(=O)[C@H](CC(=O)O)NC(=O)[C@H](CC(C)C)NC(=O)[C@](C)(Cc1ccccc1)NC(=O)[C@H](CCCCN)NC(=O)[C@H](CO)NC(=O)[C@@H](NC(=O)[C@H](CC(=O)O)NC(=O)[C@H](CO)NC(=O)[C@@H](NC(=O)[C@H](Cc1ccccc1)NC(=O)[C@@H](NC(=O)CNC(=O)[C@H](CCC(N)=O)NC(=O)C(C)(C)NC(=O)[C@@H](N)Cc1c[nH]cn1)[C@@H](C)O)[C@@H](C)O)C(C)C)[C@@H](C)O)C(C)C)C(=O)N[C@@H](C)C(=O)NC(C)(C)C(=O)NCC(N)=O [Peptide 475] (H-H[Aib]QGTFTSDVSK[αMeF]LDTK([AEEA-AEEA-γGlu-C20 diacid])RARDFVQWLLA[Aib]G-NH2)	0.00675 nM	18.0	0.0615 nM
CC(C)C[C@H](NC(=O)[C@H](CC(C)C)NC(=O)[C@H](Cc1c[nH]c2ccccc12)NC(=O)[C@H](CCCNC(=N)N)NC(=O)[C@@H](NC(=O)[C@H](Cc1ccccc1)NC(=O)[C@H](CC(=O)O)NC(=O)[C@H](CCC(N)=O)NC(=O)[C@H](C)NC(=O)[C@H](CCCNC(=N)N)NC(=O)[C@H](CCCCNC(=O)COCCOCCNC(=O)COCCOCCNC(=O)CC[C@H](NC(=O)CCCCCCCCCCCCCCCCC(=O)O)C(=O)O)NC(=O)[C@@H](NC(=O)[C@H](CC(=O)O)NC(=O)[C@H](CC(C)C)NC(=O)[C@](C)(Cc1ccccc1)NC(=O)[C@H](CCCCN)NC(=O)[C@H](CO)NC(=O)[C@@H](NC(=O)[C@H](CC(=O)O)NC(=O)[C@H](CO)NC(=O)[C@@H](NC(=O)[C@H](Cc1ccccc1)NC(=O)[C@@H](NC(=O)CNC(=O)[C@H](CCC(N)=O)NC(=O)C(C)(C)NC(=O)[C@@H](N)Cc1c[nH]cn1)[C@@H](C)O)[C@@H](C)O)C(C)C)[C@@H](C)O)C(C)C)C(=O)N[C@@H](C)C(=O)NC(C)(C)C(=O)NCC(N)=O [Peptide 476] (H-H[Aib]QGTFTSDVSK[αMeF]LDTK([AEEA-AEEA-γGlu-C18 diacid])RAQDFVRWLLA[Aib]G-NH2)	0.0573 nM	3.6	0.104 nM
